ChEMBL document CHEMBL1649520, “Pharmacokinetics of posaconazole administered orally or by nasogastric tube in healthy volunteers” (Antimicrob Agents Chemother, 2009)

Experiments:
[1] = Terminal half life in healthy human at […] administered via nasogastric tube; type: ADME, organism-based; conditions: in vivo
[2] = AUC (0 to infinity) in healthy human at […], po by ITT analysis; type: ADME, organism-based; parameters: time infinity, route oral; conditions: plasma
[3] = AUC (0 to infinity) in healthy human at […] administered via nasogastric tube; type: ADME, organism-based; parameters: route nasogastric, time infinity; conditions: plasma, po
[4] = Cmax in healthy human at […] administered via nasogastric tube by ITT analysis; type: ADME, organism-based; parameters: route nasogastric; conditions: in vivo, po
[5] = Terminal half life in healthy human at […], po; type: ADME, organism-based; parameters: route oral; conditions: in vivo
[6] = Apparent oral clearance in healthy human at […] administered via nasogastric tube; type: ADME, organism-based; parameters: route oral; conditions: in vivo
[7] = Elimination rate in healthy human at […] administered via nasogastric tube; type: ADME, organism-based; conditions: in vivo
[8] = Apparent oral clearance in healthy human at […], po; type: ADME, organism-based; parameters: route oral; conditions: in vivo
[9] = Cmax in healthy human at […] administered via nasogastric tube; type: ADME, organism-based; parameters: route nasogastric; conditions: in vivo, po
[10] = Elimination rate in healthy human at […], po; type: ADME, organism-based; parameters: route oral; conditions: in vivo
[11] = Cmax in healthy human at 400 mg, po; conditions: in vivo
[12] = AUClast in healthy human at […] administered via nasogastric tube by ITT analysis; type: ADME, organism-based; parameters: time 0 - last, route nasogastric; conditions: plasma, po
[13] = AUClast in healthy human at […], po by ITT analysis; type: ADME, organism-based; parameters: time 0 - last, route oral; conditions: plasma
[14] = Tmax in healthy human at […] administered via nasogastric tube; type: ADME, organism-based; conditions: in vivo
[15] = Tmax in healthy human at 400 mg, po; conditions: in vivo
[16] = AUC (0 to infinity) in healthy human at […], po; type: ADME, organism-based; parameters: route oral, time infinity; conditions: plasma
[17] = AUClast in healthy human at […], po; type: ADME, organism-based; parameters: time 0 - last, route oral; conditions: plasma
[18] = Cmax in healthy human at […], po by ITT analysis; type: ADME, organism-based; parameters: route oral; conditions: in vivo
[19] = AUC (0 to infinity) in healthy human at […] administered via nasogastric tube by ITT analysis; type: ADME, organism-based; parameters: route nasogastric, time infinity; conditions: plasma, po
[20] = AUClast in healthy human at […] administered via nasogastric tube; type: ADME, organism-based; parameters: route nasogastric, time 0 - last; conditions: plasma, po

Structure (SMILES): CC[C@@H]([C@H](C)O)n1ncn(-c2ccc(N3CCN(c4ccc(OC[C@@H]5CO[C@@](Cn6cncn6)(c6ccc(F)cc6F)C5)cc4)CC3)cc2)c1=O [POSACONAZOLE]
- half-life [1]: 23.7 h
- AUC(0-inf) [2]: 9.39 µg·h/mL
- AUC(0-inf) [3]: 8.4 µg·h/mL
- Cmax [4]: 0.233 µg/mL
- half-life [5]: 21.6 h
- CL/F [6]: 990 mL/min
- k el [7]: 8.61e-06 s⁻¹
- CL/F [8]: 822 mL/min
- Cmax [9]: 0.266 µg/mL
- k el [10]: 9.72e-06 s⁻¹
- Cmax [11]: 0.324 µg/mL
- AUC(0-t) [12]: 6.95 µg·h/mL
- AUC(0-t) [13]: 9.1 µg·h/mL
- Tmax [14]: 4 h
- Tmax [15]: 4 h
- AUC(0-inf) [16]: 10.9 µg·h/mL
- AUC(0-t) [17]: 10.4 µg·h/mL
- Cmax [18]: 0.289 µg/mL
- AUC(0-inf) [19]: 7.21 µg·h/mL
- AUC(0-t) [20]: 8.03 µg·h/mL
